Our source for the LC retention time values is the RepoRT retention time repository.

The structures appear in SMILES notation.

This series is described as follows: Waters ACQUITY UPLC BEH C18, 100 × 2.1 mm, 1.7 µm, 40 °C, 0.3 to 0.4 mL/min, estimated dead time 0.63 min; A: water + 0.1% formic acid; B: methanol + 0.1% formic acid; gradient (min/%B) 0/0.5 0.1/0.5 10/80 10.1/99.5 12/99.5. Particulars: stereoisomer not certain.
For the compound `COc1ccc(-c2cc(=O)c3c(O)cc(OC4OC(CO)C(O)C(O)C4OC4OC(C)C(O)C(O)C4O)cc3o2)cc1` (stereo not given), the LC retention time is 5.26 min.
The same measure for `CC1=NCCc2c1[nH]c1cc(O)ccc21`: 3.06 min; for `COc1ccc(C=Cc2cc(OC)cc(OC)c2)cc1`: 9.6 min; for `CC1(C)CC(=O)C2(C)CCC3(C)C(=CCC4C5(C)CCC(OC6OC(C(=O)O)C(O)C(O)C6OC6OC(CO)C(O)C(O)C6O)C(C)(CO)C5CCC43C)C2C1` (stereo not given): 7.84 min.
The same measure for `O=C(O)CCSCCC(=O)O`: 2.06 min.
For `COc1ccc2c(c[n+](C)c3c4cc5c(cc4ccc23)OCO5)c1OC` the value was 5.3 min.
As to `CS(=O)CCCCCCCC#N` (stereo not given), the LC retention time is 4.16 min.
The same measure for `O=C1CC(c2ccccc2)Oc2cc(O)cc(O)c21` (stereo not given): 7.47 min; for `O=c1c2ccccc2nc2n1CCC2`: 3.94 min.
For `COc1cc(C2c3cc4c(cc3C(O)C3COC(=O)C23)OCO4)cc(OC)c1OC` (stereo not given) the value was 6.26 min; for `O=C(C=Cc1ccc(O)c(O)c1)c1ccc(OC2OC(CO)C(O)C(O)C2O)c(O)c1O` (stereo not given), 4.1 min; for `COc1cc2ccc(=O)oc2cc1OC`, 5 min.
The same measure for `O=C(O)C1OC(Oc2cc3oc(-c4ccccc4)cc(=O)c3c(O)c2O)C(O)C(O)C1O` (stereo not given): 4.49 min; for `CC1OC(OC2C(Oc3cc(O)c4c(c3)OC(c3ccc(O)cc3)CC4=O)OC(CO)C(O)C2O)C(O)C(O)C1O` (stereo not given): 4.38 min; for `CC=C1CN2C3CC1C(CO)C2Cc1c3[nH]c2cc(OC)ccc12` (stereo not given): 3.68 min.
In the case of `O=C(O)CC(=O)OCC1OC(Oc2ccc3c(=O)c(-c4ccc(O)cc4)coc3c2)C(O)C(O)C1O` (stereo not given), the LC retention time was 4.1 min.
For `CCCCCCCCCCCCCCC(O)C(O)C(N)CO` (stereo not given) the value was 7.82 min; for `CC1=C(CCC(C)COC2OC(CO)C(O)C(O)C2OC2OC(C)C(O)C(O)C2O)OC2CC3C4CC=C5CC(O)CC(OC6OC(CO)C(O)C(O)C6O)C5(C)C4CCC3(C)C12` (stereo not given), 5.2 min.
As for `CC1OC(OC2C(O)COC(OC3C(C)OC(OC4C(OC(=O)C56CCC(C)(C)CC5C5=CCC7C8(C)CCC(OC9OC(CO)C(O)C(O)C9O)C(C)(C)C8CCC7(C)C5(C)CC6O)OCC(O)C4O)C(O)C3O)C2O)C(O)C(O)C1O` (stereo not given), the LC retention time is 6.12 min.
`CC(C)=CCc1cc(C=CC(=O)c2ccc(O)cc2O)ccc1O`: the LC retention time was 8.61 min.
For `CCCC(=O)OC(CC(=O)[O-])C[N+](C)(C)C` (stereo not given) the value was 2.18 min; for `CCN1CC2(COC)C(OC(C)=O)CC(OC)C34C5CC6(O)C(OC)C(O)C(OC(C)=O)(C5C6OC(=O)c5ccccc5)C(C(OC)C23)C14` (stereo not given), 6.17 min.
With `CC1CCC2(C(=O)OC3OC(COC4OC(CO)C(OC5OC(C)C(O)C(O)C5O)C(O)C4O)C(O)C(O)C3O)CCC3(C)C(=CCC4C5(C)CC(O)C(O)C(C)(CO)C5CCC43C)C2C1C` (stereo not given), the LC retention time is 5.21 min.
The same measure for `CC(CCC1(O)OC2CC3C4CC=C5CC(OC6OC(CO)C(O)C(OC7OC(CO)C(O)C(O)C7O)C6OC6OC(C)C(O)C(O)C6O)CCC5(C)C4CCC3(C)C2C1C)COC1OC(CO)C(O)C(O)C1O` (stereo not given): 4.99 min; for `COc1ccc(-c2coc3cc(OC4OC(COC(=O)CC5CCNCC5)C(O)C(O)C4O)c(OC)cc3c2=O)cc1` (stereo not given): 4.67 min.
As to `C=CCc1ccc(O)c(-c2ccc(O)c(CC=C)c2)c1`, the LC retention time was 8.63 min.
For `CCCCCCCCCCCCCCCC(=O)OCC(O)COP(=O)(O)OCCN` (stereo not given) the value was 10 min; for `CCN1CC2(COC)CCC(O)C34C5CC6C(OC)CC(O)(C(CC23)C14)C5C6O` (stereo not given), 2.91 min.
The same measure for `CCC12C=CCN3CCC4(C(=C(C(=O)OC)C1)Nc1ccccc14)C32` (stereo not given): 5.2 min; for `COc1cc(C=CC(=O)OC2CC(O)(C(=O)O)CC(O)C2O)ccc1O` (stereo not given): 3.71 min.
